Laboratory results from US10577406B2, “FKBP-L polypeptides and uses in angiogenesis-mediated disorders” (ALMAC DISCOVERY LIMITED, priority 2006, dated 2020).

Legend:
[1] = tested on: mouse endothelial cells, 2H-11; test: wound scrape assay in a mouse endothelial cell line; type: cell-based; conditions: 10^−14-10^−7 M; 7 hours
Experimental: This experiment evaluated the ability of the FKBP-L 24mer to inhibit endothelial cell migration over a dose ranges spanning from 10^−14 M to 10^−7 M. The in vitro migration assay used in these studies is a modified version of the method described by Ashton et al (1999) see supra. In this assay mouse endothelial cells, 2H-11, were obtained from the American Tissue Culture Collection and were grown in D-MEM containing 10% FCS. They were plated into individual chambers on a glass slide and grown to 90% confluence overnight. The medium was removed and the monolayer wounded. The monolayer was re-supplemented with fresh medium and the required volume of the FKBPL 24mer peptide was added to achieve a dose range from 10^−14-10^−7 M. The monolayers were incubated for 7 hours and then fixed in 4% PBS buffered paraformaldehyde.
The extent of “wound” closure was blindly assessed microscopically by an independent investigator and quantified using a calibrated eyepiece graticule (1 mm/100 μm graduation) at 20× magnification (Olympus BX 50). The extent of closure in the FKBP-L 24mer treated slides was compared to time matched sham treated controls and the % inhibition of wound closure compared to time matched controls calculated.

[2] = tested on: HMEC-1 (microvascular endothelial cells; CD44+ve); test: cell invasion in a modified Boyden chamber system, HMEC-1; type: cell-based, Human; conditions: 48 h
Experimental: Twelve well plate polycarbonate inserts were divided into two groups with half remaining uncoated and half coated with 100 μg/cm^2 of Matrigel. The coated inserts were allowed to dry overnight at room temperature in a sterile tissue culture hood. The required cell line; HMEC-1, PC3 or MDA231 was trypsinised, re-suspended in fresh medium and the cell number calculated. 5×10^5 cells, in a total volume of 500 μl, were added to the insert (top chamber) and 1.5 ml of complete medium added to the bottom chamber of the plate as a stimulus for invasion. FKBP-L 24mer was added to both the upper and lower chamber of the plate at the required concentration in the experimental wells. The plate was incubated for 24 h (PC3 or MDA231) or 48 h (HMEC-1).
The inserts were carefully removed from their 12 well plate and inserts without Matrigel coating were placed directly into Carnoys fixative. […]
The polycarbonate inserts were cut from the holders and placed on to mounting medium on a microscope slide. […] The slides were stored at 4° C. until analysed.
Ten images from each insert were captured and the number of fluorescent cells per image was analysed by Lucia Imaging software. The ratio of cells visible on non-coated inserts compared to cells visible on Matrigel coated inserts was expressed as % invasion. […]

[3] = tested on: migrating HMEC-1; test: immunohistochemical analysis of cytoskeletal morphology (anti-tubulin, anti-vimentin, confocal microscopy); type: cell-based, Human; conditions: 750 ngml^−1; 5 hours after wounding
Experimental: Immunohistochemical analysis was carried out to assess cytoskeletal morphology upon treatment with FKBP-L by staining for tubulin and vimentin. HMEC-1 were seeded in four well chamber slides and incubtated overnight until confluent monolayers had formed. Media was removed from each well and the monolayer wounded as previously described. The cells were re-supplemented with medium containing 750 ngml^−1 recombinant His-tagged FKBP-L protein (i.e., SEQ ID NO: 1). The cells were incubated for 5 hours and the chambers were removed from the slides and the cells washed four times in PBS followed by fixation in 4% PBS buffered paraformaldehyde treated with 0.1% Triton X for 20 minutes. The cells were washed three times in PBS, and blocked for 20 minutes in 2% BSA containing 0.1% Triton X. Blocked cells were washed in PBS and incubated with one of the following monoclonal primary antibodies: (A) anti α tubulin (1:500); and (B) anti-vimentin (1:200), for 90 minutes. The cells were washed in PBS followed by a 1 hour incubation with FITC conjugated anti-mouse secondary (1:30) at room temperature. The cells were mounted with Vectashield containing propidium iodide and sealed to prevent dehydration. The slides were covered in tinfoil and stored at 4° C. for analysis using fluorescence confocal microscopy.

Molecule | effect on wound closure in mouse endothelial cells [1] | effect on cell invasion through Matrigel [2] | intermediate filament morphology (anti-vimentin staining) [3] | microtubule morphology (anti α tubulin staining) [3]
H-QIRQQPRDPPTETLELEVSPDPAS-OH [FKBP-L 24mer] | inhibited wound closure | potent inhibitor |  | 
full length recombinant FKBP-L: recombinant full length his-tagged FKBP-L protein (SEQ ID NO: 1) expressed in BL21 (DE3) (protein, listed as Homo sapiens, His tag) MRGSHHHHHHGMASMTGGQQMGRDLYDDDDKDRWGSMETPPVNTIGEKDTSQPQQEWEKNLRENLDSVIQIRQQPRDPPTETLELEVSPDPASQILEHTQGAEKLVAELEGDSHKSHGSTSQMPEALQASDLWYCPDGSFVKKIVIRGHGLDKPKLGSCCRVLALGFPFGSGPPEGWTELTMGVGPWREETWGELIEKCLESMCQGEEAELQLPGHTGPPVGLTLASFTQGRDSWELETSEKEALAREERARGTELFRAGNPEGAARCYGRALRLLLTLPPPGPPERTVLHANLAACQLLLGQPQLAAQSCDRVLEREPGHLKALYRRGVAQAALGNLEKATADLKKVLAIDPKNRAAQEELGKVVIQGKNQDAGLAQGLRKMFG |  |  | highly disorganized | little alignment into the wound
